Where a name gives a salt, the structure may show the parent alone. Read-outs that look alike come from different tables or passages of the source.
Legend:
[1] = Acute toxicity determined orally in mice; details: mouse, in vivo; oral, mice (NMRI)
Procedure: The acute toxicity was determined orally in mice (NMRI).

[2] = system: microcirculation of the chamber of the rabbit's ear; assay: Activity with respect to the microcirculation of the chamber of the rabbit's ear; type: in vivo; details: 1 mg/kg I.V.
Description: The activity of the compounds administered intravenously with respect to the microcirculation of the chamber of the rabbit's ear was studied.

femoral flow rate = assay: Cardiovascular activity, compounds administered intravenously in anaesthetised dogs (femoral flow rate); type: in vivo; details: intravenous; for increase in femoral flow rate: 4 mg/kg; for minimal effective dose: Canis lupus familiaris, read-out: dose at and above which femoral flow rate is significantly increased
Description: (§1) The activity of the compounds administered intravenously was studied in anaesthetised dogs.

ATP in fresh blood = assay: Effects on ATP in fresh blood measured ex vivo by 31P NMR spectroscopy
Procedure: The effects of the compounds on the ATP in fresh blood were measured ex vivo by ^31 p NMR spectroscopy.
The results are given in the table below in the form of percentage changes.

Solubility in water = type: physicochemical; details: for solubility: read-out: solubility in water (concentration)
arterial blood pressure = assay: Cardiovascular activity, compounds administered intravenously in anaesthetised dogs (arterial blood pressure); type: in vivo; details: intravenous
Description: as §1

## O=C(CCCN1CCCC1)c1cccs1 [Example 1, 4-pyrrolidino-l-(2-thienyl)butanone hydrochloride]
[1]
  LD50: 121 ± 10 mg/kg
[2]
  increase in non-terminal arteriolar diameter: significant and long-lasting increase
Femoral flow rate
  increase in femoral flow rate: 170%
  minimal effective dose: ≥ 1 mg/kg
ATP in fresh blood
  percentage change in αATP: +41.4%
  percentage change in βATP: +31.2%
  percentage change in γATP: +36.7%
Solubility in water
  solubility: 200 mg/mL
Arterial blood pressure; even at 4 mg/kg
  change in arterial blood pressure: no significant change

## O=C(CCCN1CCCCC1)c1cccs1 [Example 2, 4-piperidino-l-(2-thienyl)butanone hydrochloride]
[1]
  LD50: 235 ± 35 mg/kg
Femoral flow rate; 2 mg/kg
  increase in femoral flow rate compared with buflomedil at 4 mg/kg: same intensity as buflomedil at a dose of 4 mg/kg
Femoral flow rate
  minimal effective dose: ≥ 1 mg/kg
  duration of effect on femoral flow rate compared with buflomedil: longer-lasting than that of buflomedil
Solubility in water; hydrochloride
  solubility in water (in words): water-soluble
Arterial blood pressure; 2 mg/kg
  change in arterial blood pressure: without modifying arterial blood pressure

## CC1CCCN(CCCC(=O)c2cccs2)C1 (stereo not drawn) [Example 3, 4-(3-methylpiperidino)-1-(2-thienyl)butanone hydrochloride]
[1]
  LD50: 207 ± 29 mg/kg
ATP in fresh blood
  percentage change in αATP: +54.2%
  percentage change in βATP: +54.6%
  percentage change in γATP: +34.7%
Solubility in water
  solubility: 200 mg/mL

## O=C(CCCN1CCOCC1)c1cccs1 [Example 4, 4-morpholino-l-(2-thienyl)butanone hydrochloride]
Solubility in water
  solubility in water (in words): water-soluble

## O=C(CCCN1CCCC(CO)C1)c1cccs1 (stereo not drawn) [Example 5, 4-[3-(hydroxymethyl)piperidino]-1-(2-thienyl) butanone hydrochloride]
Solubility in water
  solubility in water (in words): water-soluble

## O=C(CCCn1ccnc1)c1cccs1 [Example 6, 4-(1-imidazolyl)-1-(2-thienyl)butanone hydrochloride]
Solubility in water
  solubility in water (in words): water-soluble

## O=C(CCCN1CCCCCC1)c1cccs1 [Example 7, 4-hexamethylenimino-1-(2-thienyl)butanone hydrochloride]
[1]
  LD50: 131 ± 15 mg/kg
[2]
  increase in non-terminal arteriolar diameter: significant and long-lasting increase
Femoral flow rate; 1.14 mg/kg and above
  increase in femoral flow rate (in words): significant and longlasting increase
Femoral flow rate
  minimal effective dose: ≥ 1.14 mg/kg
Femoral flow rate; dose of 1.14 mg/kg and above
  increase in femoral flow rate compared with buflomedil at 4 mg/kg: larger than that observed with buflomedil at a dose of 4 mg/kg
Solubility in water
  solubility in water (in words): watersoluble

## O=C(CCCN1CCCC1)c1ccsc1 [Example 8, 4-pyrrolidino-1-(3-thienyl)butanone hydrochloride]
Solubility in water
  solubility in water (in words): water-soluble

## O=C(CCCN1CCCCCC1)c1ccsc1 [Example 9, 4-hexamethylenimino-1-(3-thienyl)butanone hydrochloride]
Solubility in water
  solubility in water (in words): water-soluble

## CC1CCCN(CCCC(=O)c2ccsc2)C1 (stereo not drawn) [Example 10, 4-(3-methylpiperidino)-1-(3thienyl)butanone hydrochloride]
Solubility in water
  solubility in water (in words): water-soluble

## O=C(CCCN1CCCC1)c1cccs1 [Example 11, 4-pyrrolidino-1-(2-thienyl)butanone 2,4,6-trimethoxybenzoate]
Solubility in water
  solubility in water (in words): soluble in water on heating

## O=C(CCCN1CCCCC1)c1cccs1 [Example 12, 4-piperidino-1-(2-thienyl)butanone 2,4,6-trimethoxybenzoate]
Solubility in water
  solubility in water (in words): soluble in water on heating

## COc1cc(OC)c(C(=O)CCCN2CCCC2)c(OC)c1 [buflomedil, reference compound]
Femoral flow rate
  increase in femoral flow rate: 106%
ATP in fresh blood
  change in ATP level: did not reveal any change in ATP level

— patent publication US5446060A, “Aminoalkyl thienyl ketone derivatives and their use as peripheral vasodilators” (Laboratoire L. Lafon, priority 1990, dated 1995)
